System: panel of 55 breast cancer cell lines
Test: Cell growth inhibition assay (Cell Titer Glo, 72 h, 9 doses; GI50, TGI, LC50)
Type: cell-based, human
[1] = AU565 cell line, censored GI50 values, value is the negative log10 of mol/L
[2] = BT20 cell line, censored GI50 values, value is the negative log10 of mol/L
[3] = BT474 cell line, censored GI50 values, value is the negative log10 of mol/L
[4] = BT483 cell line, censored GI50 values, value is the negative log10 of mol/L
[5] = HCC70 cell line, censored GI50 values, value is the negative log10 of mol/L
[6] = HCC1187 cell line, censored GI50 values, value is the negative log10 of mol/L
[7] = HCC1428 cell line, censored GI50 values, value is the negative log10 of mol/L
[8] = HCC1500 cell line, censored GI50 values, value is the negative log10 of mol/L
[9] = HCC1806 cell line, censored GI50 values, value is the negative log10 of mol/L
[10] = HCC1954 cell line, censored GI50 values, value is the negative log10 of mol/L
[11] = HCC2185 cell line, censored GI50 values, value is the negative log10 of mol/L
[12] = HCC3153 cell line, censored GI50 values, value is the negative log10 of mol/L
[13] = MDAMB134VI cell line, censored GI50 values, value is the negative log10 of mol/L
[14] = MDAMB175VII cell line, censored GI50 values, value is the negative log10 of mol/L
[15] = SKBR3 cell line, censored GI50 values, value is the negative log10 of mol/L
[16] = SUM52PE cell line, censored GI50 values, value is the negative log10 of mol/L
[17] = SUM149PT cell line, censored GI50 values, value is the negative log10 of mol/L
[18] = SUM225CWN cell line, censored GI50 values, value is the negative log10 of mol/L
[19] = SUM1315MO2 cell line, censored GI50 values, value is the negative log10 of mol/L
[20] = T47D cell line, censored GI50 values, value is the negative log10 of mol/L
[21] = UACC812 cell line, censored GI50 values, value is the negative log10 of mol/L
[22] = ZR75B cell line, censored GI50 values, value is the negative log10 of mol/L
[23] = ZR751 cell line, censored GI50 values, value is the negative log10 of mol/L
[24] = cell line AU565, value is the negative log10 of mol/L
[25] = cell line BT474, value is the negative log10 of mol/L
[26] = cell line BT483, value is the negative log10 of mol/L
[27] = cell line BT549, value is the negative log10 of mol/L
[28] = cell line CAMA1, value is the negative log10 of mol/L
[29] = cell line HCC38, value is the negative log10 of mol/L
[30] = cell line HCC70, value is the negative log10 of mol/L
[31] = cell line HCC202, value is the negative log10 of mol/L
[32] = cell line HCC1143, value is the negative log10 of mol/L
[33] = cell line HCC1187, value is the negative log10 of mol/L
[34] = cell line HCC1395, value is the negative log10 of mol/L
[35] = cell line HCC1419, value is the negative log10 of mol/L
[36] = cell line HCC1428, value is the negative log10 of mol/L
[37] = cell line HCC1500, value is the negative log10 of mol/L
[38] = cell line HCC1806, value is the negative log10 of mol/L
[39] = cell line HCC1937, value is the negative log10 of mol/L
[40] = cell line HCC1954, value is the negative log10 of mol/L
[41] = cell line HCC2185, value is the negative log10 of mol/L
[42] = cell line HCC3153, value is the negative log10 of mol/L
[43] = cell line LY2, value is the negative log10 of mol/L
[44] = cell line MCF7, value is the negative log10 of mol/L
[45] = cell line MDAMB157, value is the negative log10 of mol/L
[46] = cell line MDAMB175V, value is the negative log10 of mol/L
[47] = cell line MDAMB361, value is the negative log10 of mol/L
[48] = cell line MDAMB453, value is the negative log10 of mol/L
[49] = cell line MDAMB468, value is the negative log10 of mol/L
[50] = cell line SKBR3, value is the negative log10 of mol/L
[51] = cell line SUM52PE, value is the negative log10 of mol/L
[52] = cell line SUM149PT, value is the negative log10 of mol/L
[53] = cell line SUM1315MO, value is the negative log10 of mol/L
[54] = cell line UACC812, value is the negative log10 of mol/L
[55] = cell line UACC893, value is the negative log10 of mol/L
[56] = cell line ZR75B, value is the negative log10 of mol/L
[57] = cell line ZR751, value is the negative log10 of mol/L
[58] = HCC1419 cell line, censored GI50 values, value is the negative log10 of mol/L
[59] = MDAMB361 cell line, censored GI50 values, value is the negative log10 of mol/L
[60] = SUM185PE cell line, censored GI50 values, value is the negative log10 of mol/L
[61] = cell line BT20, value is the negative log10 of mol/L
[62] = cell line MDAMB134V, value is the negative log10 of mol/L
[63] = cell line MDAMB436, value is the negative log10 of mol/L
[64] = cell line SUM185PE, value is the negative log10 of mol/L
[65] = cell line SUM225CWN, value is the negative log10 of mol/L
[66] = cell line T47D, value is the negative log10 of mol/L

O=c1[nH]c(=O)n([C@H]2C[C@H](O)[C@@H](CO)O2)cc1F [5-FdUR]
GI50 [1]: 4.97
GI50 [2]: 3.49
GI50 [3]: 3.29
GI50 [4]: 4.13
GI50 (CAMA1 cell line, censored GI50 values, value is the negative log10 of mol/L): 3.92
GI50 (HCC38 cell line, censored GI50 values, value is the negative log10 of mol/L): 4.00
GI50 [5]: 3.67
GI50 (HCC1143 cell line, censored GI50 values, value is the negative log10 of mol/L): 4.02
GI50 [6]: 3.81
GI50 (HCC1395 cell line, censored GI50 values, value is the negative log10 of mol/L): 3.60
GI50 (HCC1419 cell line, censored GI50 values): 2.73
GI50 [7]: 3.91
GI50 [8]: 4.21
GI50 [9]: 4.02
GI50 (HCC1937 cell line, censored GI50 values, value is the negative log10 of mol/L): 3.37
GI50 [10]: 3.99
GI50 [11]: 3.12
GI50 [12]: 3.24
GI50 (LY2 cell line, censored GI50 values, value is the negative log10 of mol/L): 5.01
GI50 [13]: 3.15
GI50 [14]: 4.69
GI50 (MDAMB231 cell line, censored GI50 values, value is the negative log10 of mol/L): 3.10
GI50 (MDAMB468 cell line, censored GI50 values, value is the negative log10 of mol/L): 3.22
GI50 [15]: 3.66
GI50 [16]: 3.49
GI50 [17]: 4.11
GI50 (SUM159PT cell line, censored GI50 values, value is the negative log10 of mol/L): 4.49
GI50 [18]: 3.71
GI50 [19]: 3.13
GI50 [20]: 3.48
GI50 [21]: 4.34
GI50 [22]: 5.16
GI50 [23]: 5.27
GI50 (cell line 600MPE, value is the negative log10 of mol/L): 4.11
GI50 [24]: 5.18
GI50 [25]: 3.17
GI50 [26]: 4.48
GI50 [27]: 3.74
GI50 [28]: 3.51
GI50 [29]: 3.72
GI50 [30]: 4.05
GI50 [31]: 4.41
GI50 [32]: 3.69
GI50 [33]: 3.18
GI50 [34]: 3.13
GI50 [35]: 3.77
GI50 [36]: 4.99
GI50 [37]: 4.23
GI50 [38]: 4.59
GI50 [39]: 3.64
GI50 [40]: 4.78
GI50 [41]: 3.42
GI50 [42]: 3.45
GI50 [43]: 4.41
GI50 [44]: 4.39
GI50 (cell line MDAMB134V): 2.01
GI50 [45]: 3.11
GI50 [46]: 3.95
GI50 (cell line MDAMB231, value is the negative log10 of mol/L): 3.75
GI50 [47]: 3.84
GI50 (cell line MDAMB436): 2.97
GI50 [48]: 4.01
GI50 [49]: 3.71
GI50 [50]: 4.48
GI50 [51]: 4.40
GI50 [52]: 4.14
GI50 (cell line SUM159PT, value is the negative log10 of mol/L): 4.68
GI50 (cell line SUM185PE): 2.53
GI50 [53]: 3.37
GI50 [54]: 4.02
GI50 [55]: 3.30
GI50 [56]: 4.95
GI50 [57]: 4.51

CC(C)(C)c1cc(C=C(C#N)C#N)cc(Br)c1O [AG1024]
GI50 [5]: 5.21
GI50 (HCC202 cell line, censored GI50 values, value is the negative log10 of mol/L): 4.92
GI50 [58]: 4.70
GI50 [7]: 5.05
GI50 [11]: 5.11
GI50 [12]: 5.11
GI50 [13]: 4.69
GI50 [14]: 4.82
GI50 [59]: 4.69
GI50 [16]: 5.45
GI50 [60]: 5.57
GI50 [18]: 5.03
GI50 [19]: 5.17
GI50 [20]: 4.68
GI50 (UACC893 cell line, censored GI50 values, value is the negative log10 of mol/L): 4.75
GI50 [24]: 4.48
GI50 [61]: 4.48
GI50 [25]: 4.48
GI50 [26]: 4.48
GI50 [27]: 4.48
GI50 [28]: 4.48
GI50 [29]: 4.48
GI50 [30]: 5.21
GI50 [31]: 4.92
GI50 [32]: 4.58
GI50 [33]: 4.48
GI50 [34]: 4.48
GI50 [35]: 4.70
GI50 [36]: 5.05
GI50 [37]: 4.58
GI50 [38]: 4.48
GI50 [39]: 4.48
GI50 [40]: 4.50
GI50 [41]: 5.11
GI50 [42]: 5.11
GI50 [43]: 4.48
GI50 [44]: 4.48
GI50 [62]: 4.69
GI50 [45]: 4.48
GI50 [46]: 4.82
GI50 [47]: 4.69
GI50 (cell line MDAMB415, value is the negative log10 of mol/L): 4.48
GI50 [63]: 4.48
GI50 [48]: 4.51
GI50 [49]: 4.48
GI50 [50]: 4.48
GI50 [51]: 5.45
GI50 [52]: 4.48
GI50 [64]: 5.57
GI50 [65]: 5.03
GI50 [53]: 5.17
GI50 [66]: 4.68
GI50 [54]: 4.48
GI50 [55]: 4.75
GI50 [56]: 4.48
GI50 [57]: 4.52

O=C1NC(=O)/C(=C/c2ccc(-c3ccc(F)cc3O)o2)S1 [AS-252424]
GI50 [1]: 4.87
GI50 [2]: 4.65
GI50 [3]: 5.36
GI50 [4]: 5.37
GI50 [6]: 5.78
GI50 [58]: 4.69
GI50 [7]: 5.31
GI50 [8]: 5.24
GI50 [9]: 5.15
GI50 [10]: 5.46
GI50 [11]: 4.46
GI50 (MCF7 cell line, censored GI50 values, value is the negative log10 of mol/L): 4.80
GI50 [14]: 4.61
GI50 [59]: 4.71
GI50 (MDAMB436 cell line, censored GI50 values, value is the negative log10 of mol/L): 4.74
GI50 (MDAMB453 cell line, censored GI50 values, value is the negative log10 of mol/L): 4.69
GI50 [15]: 4.40
GI50 [16]: 4.44
GI50 [17]: 4.66
GI50 [60]: 5.27
GI50 [18]: 5.02
GI50 [19]: 4.75
GI50 [20]: 5.25
GI50 [21]: 4.88
GI50 [22]: 4.65
GI50 [23]: 5.20
GI50 [24]: 4.87
GI50 [61]: 4.65
GI50 [25]: 5.36
GI50 [26]: 5.37
GI50 [28]: 4.18
GI50 [30]: 4.67
GI50 [33]: 5.78
GI50 [35]: 4.69
GI50 [36]: 5.31
GI50 [37]: 5.24
GI50 [38]: 5.15
GI50 [39]: 4.18
GI50 [40]: 5.46
GI50 [41]: 4.46
GI50 [42]: 4.48
GI50 [43]: 4.51
GI50 [44]: 4.80
GI50 [62]: 4.30
GI50 [46]: 4.61
GI50 [47]: 4.71
GI50 [63]: 4.74
GI50 [48]: 4.69
GI50 [49]: 4.18
GI50 [50]: 4.40
GI50 [51]: 4.44
GI50 [52]: 4.66
GI50 [64]: 5.27
GI50 [65]: 5.02
GI50 [53]: 4.75
GI50 [66]: 5.25
GI50 [54]: 4.88
GI50 [56]: 4.65
GI50 [57]: 5.20
